The source of these data is US6878689B2, “Preventives or remedies for heart failure” (Kaken Pharmaceutical Co., Ltd., priority 2000, dated 2005).

Molecules are shown by their SMILES. Where a SMILES comes first, the peptide text is derived from it. [ ]: non-standard residue; d: D form. d2Nal = N[C@H](Cc1ccc2ccccc2c1)C(=O)O Where only a bound is given, the exact number is not on record here.

This data set concerns anesthetized open-chest rabbits. The data set can be described thus: Effects of intravenously administered pralmorelin on cardiac function of anesthetized open-chest rabbit. It is filed as in vivo. The procedure:
[Test Example 2] Effects of Intravenously Administered Pralmorelin on the Cardiac Function of Rabbit
The effects of pralmorelin on cardiac function were evaluated by measuring various parameters [blood pressure, heart rate, systolic left ventricular pressure (LVPsys), and maximal positive dP/dt (+dP/dtmax) obtained by differentiating the waveform of left ventricular pressure (LVP)]. The value of the maximal positive dP/dt for the left ventricular pressure (+dP/dtmax) is particularly important to determine if the cardiotonic action is sufficient to treat acute heart failure. • 1. Test Substance and Reagent • 1) Test Substance
Pralmorelin dihydrochloride (hereunder referred to as KP-102) (prepared by the method described in WO 9304081) was dissolved in distilled water for injection to prepare a 1.5 mg/mL solution. • 2) Control
Male NZW-strain rabbits (Kitayama Labes) weighing about 2 kg were used in the experiment. After arrival, the animals were allowed to eat a solid meal (Labo R Stock, Oriental Yeast Co., Ltd.) and drink water in a room at a temperature of 20±2° C. and at a humidity of 55±15% under 12-hr light/ dark cycles (from 7:00 to 19:00); the animals were kept under these conditions for at least 6 days before use. • 3. Test Method • 1) Measuring the Cardiac Function of Anesthetized Open-Chest Rabbit
Rabbits were anesthetized by administering 30 mg/kg of sodium pentobarbital into the auricular vein at a slow speed with attention to their breathing. The animals were then fixed in supine position and an endotracheal cannula was inserted. Under artificial respiration (tidal volume, 25 mL/breath; ventilation frequency, 45 breaths/min: SN-480-7 of Shinano Seisakusyo), the chest of each animal was opened by midline incision and the pericardium was incised to expose the heart. The left ventricular pressure (LVP) was measured with a pressure transducer (TP-300T, Nihon Kohden) and a pressure amplifier (AG-610G, Nihon Kohden) as a cannula with syringe was inserted from the cardiac apex into the left ventricle. The waveform of LVP was differentiated with a differentiator unit (ED-601, Nihon Kohden) to determine the maximal positive dP/dt(+dP/dtmax), which was used as an index for cardiac contractility. Blood pressure was measured with a pressure amplifier (AP-610G, Nihon Kohden) via a pressure transducer (TP-300T, Nihon Kohden) connected to a cannula inserted into the left femoral artery. Heart rate was measured with a cardiotachometer (AT-601G, Nihon Kohden) that was driven by counting the pulse waves of LVP. The parameters mentioned above were recorded on a recorder (TA-11, Gould). A cannula was inserted into the left femoral vein so as to assist in the administration of the test substance. The rectum temperature of each animal was controlled at 39° C. with a body temperature controller (TK-43, Asahi Denshi). The anesthetic was added as required but additional anesthetization should be avoided during the measurements. • 2) Groups
After each parameter stabilized, distilled water (0.2 mL/kg) was administered over one minute with an infusion pump (FP-W-100, Toyo Sangyo K.K.) and observations were made for 5 minutes after the administration to see whether the vehicle would have no effect. About 5 minutes after the administration of distilled water, the test substance was administered with an infusion pump in a volume of 0.2 mL/kg over one minute according to the grouping method specified above. Each hemodynamic parameter was measured both before administration and 1, 3, 5, 10, 15, 20 and 25 minutes after administration and the percent changes from the basal values were calculated. In some animals, measurement was conducted until 40 minutes after the administration of the test substance. • 4. Statistical Analysis
The results were each expressed by mean ± standard deviation. Any difference between groups was tested by repeated measures ANOVA (analysis of variance); The significance level was set at 5%. • 5. […]

The mark [1] stands for this setting: 300 μg/kg i.v. over one minute, n=4, p<0.01 vs control.

For `C[C@H](NC(=O)[C@@H](Cc1ccc2ccccc2c1)NC(=O)[C@@H](C)N)C(=O)N[C@@H](Cc1c[nH]c2ccccc12)C(=O)N[C@H](Cc1ccccc1)C(=O)N[C@@H](CCCCN)C(N)=O` [KP-102, D-alanyl-3-(naphthalen-2-yl)-D-alanyl-L-alanyl-L-tryptophyl-D-phenylalanyl-L-lysinamide] (H-[dA][d2Nal]AW[dF]K-NH2), for the setting “300 μg/kg i.v.”, the “overall effect on heart rate” value is reported as “little affected” and the “time until blood pressure baseline value practically restored” value is approximately 25 min. Moreover, under setting [1], the “Maximum increase in +dP/dtmax, of the baseline value” came out at 22% and the “Maximum increase in LVPsys, of the baseline value” turned out to be 13%. In addition, the “drop in heart rate” value (300 μg/kg i.v., 3 minutes after the administration) is listed as 2%. Moreover, the “increase in heart rate” value (300 μg/kg i.v., 15 minutes after the administration) was found to be 1%. Also, where the note is “300 μg/kg i.v., 25 minutes after the administration”, the “increase in heart rate” value is on record as 2%. The “period of peak of cardiotonic action” value (300 μg/kg i.v., LVPsys and +dP/dtmax) is 5 to 10 min. The “time until baseline values of LVPsys and +dP/dtmax restored” value (300 μg/kg i.v., one case with extended monitoring) is not above 40 min. In addition, for the setting “300 μg/kg i.v., p<0.05 vs control”, the “effect on mean blood pressure” value was “significant rise of blood pressure”.
